Converted amounts (≈) assume the structure as drawn.
Tests used:
Pimephales promelas = settings: chronic/long-term; duration: 34 days; reproduction
Rattus norvegicus = settings: oral
Apis mellifera = settings: acute; duration: 48 hours; oral; unspecified; mortality
Daphnia magna = settings: chronic/long-term; duration: 21 days; reproduction
Folsomia candida = settings: chronic/long-term, duration: 28 days
Colinus virginianus = settings: acute, oral, mortality
Oryctolagus sp. = settings: developmental; development
Canidae = settings: subchronic; duration: 90 days; oral; F; Dog Other; body weight
Mus musculus = settings: chronic; histopathology: neoplastic
Landoltia sp. = settings: acute; duration: 14 days
Lepomis macrochirus = settings: acute; duration: 96 hours; mortality
Anas platyrhynchos = settings: reproductive
Bibionidae = settings: chronic/long-term; duration: 28 days; development

Compound: CCOc1cc(Oc2ccc(C(F)(F)F)cc2Cl)ccc1[N+](=O)[O-] [Oxyfluorfen]
- NOEC (Pimephales promelas): 0.038 mg/L
- LD50 (Rattus norvegicus; acute, mortality): > 5000 mg/kg-day
- NOAEL (Rattus norvegicus; chronic, duration: 2 years): 20 mg/kg-day
- LD50 (Apis mellifera): > 100 µg/piece
- NOEC (Daphnia magna): 0.013 mg/L
- LC50 (Folsomia candida; mortality): 2.78 mg/kg
- NOEC (Folsomia candida; reproduction): 1.25 mg/kg
- LD50 (Colinus virginianus; diet): > 462 mg/kg-day
- LD50 (Colinus virginianus): > 2150 mg/kg-day
- NOAEL (Oryctolagus sp.): 30 mg/kg-day
- NOAEL (Canidae): 2.17 mg/kg-day
- LC50 (Tagia sp.; acute, duration: 14 days, mortality): > 1000 mg/kg
- NOEC (Tagia sp.; chronic/long-term, duration: 56 days): 24 mg/kg
- NOAEL (Mus musculus): 3 mg/kg-day
- NOEC (Landoltia sp.): 0.00195 mg/L
- LC50 (Lepomis macrochirus): 0.21 µg/mL (≈ 0.581 µM)
- NOEL (Anas platyrhynchos): 64.7 mg/kg-day
- NOEC (Bibionidae): 0.08 mg/L
